Where a name gives a salt, the structure may show the parent alone. Read-outs that look alike come from different tables or passages of the source. Each block holds one compound with its values, some of them ahead of it.
How the values were obtained:
[1] = tested on: TNF alpha; settings: PMA-differentiated HL60 cells, pre-stimulation 1 h with 1 mmol/l, then 100 ng/mL LPS 24 h, 3 measurements, LPS control 30.08
Description: (§1) For the differentiation to macrophages HL60 cells were treated with phorbol 12-myristate 13-acetate (PMA) in advance. […] The secretion of TNF alpha and IL-6 was determined in the cell supernatant using ELISA testing over 3 measurements, respectively. Table 4 as well as FIGS. 7a and 7b show the respective mean value m and the standard deviation s (GraphPad Prism 5).

[2] = tested on: IL-6; settings: PMA-differentiated HL60 cells, pre-stimulation 1 h with 1 mmol/l, then 100 ng/mL LPS 24 h, 3 measurements, LPS control 42.81
Description: as §1

[3] = determination repeated 10 times
Description: After drying all forms produced were vortexed for 1 minute to let bigger agglomerates carefully disaggregate.
A sample of each of the respective solids to be determined was filled into a plastic funnel for solids (diameter of the outlet: 11 mm) with closable outlet which was mounted in a height of 20 mm above the collecting vessel. The funnel used was always filled half-full, thereby ensuring that there was always more sample material provided than necessary for filling the collecting vessel. After opening the outlet the respective solids trickled into the collecting vessel until it was filled up above the upper rim. The supernatant of the respective solids was removed with a spatula and the filled collecting vessel was weighed out with a high-resolution balance. The determination for each form was repeated 10 times and the mean value was calculated (Table 3).

[4] = from WO2011/107295A1; cited from earlier work
[5] = 30-600° C., synthetic air, heating rate 10° C./min
Description: The determination was carried out by means of simultaneous thermogravimetry (differential scanning calorimetry) at a Linseis L81-077 coupled with mass spectroscopy measurements with a Netzsch STA 449 C (thermobalance) with MS and FTIR coupling over 30-600° C. under synthetic air (4 N2:1 O2) and a heating rate of 10° C./min. The data were analyzed with the company software Proteus.

[6] = methanol or ethanol
Excerpt: In polymorphs of crystalline solids phase transitions occur depending on the thermodynamic stability of the individual forms. […] Different transformation processes are known. […] In this respect so-called slurry experiments can provide information on the thermodynamic stability of polymorphs of a solid.
To compare the stability under the influence of solvents 50:50 (wt %) solid phase mixtures were produced of form III according to the invention and form I as well as of form III according to the invention and form II.
In each case 0.05 g of the respective solid phase mixture were suspended in 5 mL 2-propanol, methanol or ethanol, respectively. The mixture of form III and form I was stirred at RT for 3 days. The mixture of form III and form II was stirred at RT for 24 h. The suspensions were filtered under vacuum utilizing a Büchner funnel. The remaining crystalline solid was completely dried at RT. X-ray powder diffraction patterns of the resulting crystalline solids were recorded with a Bragg-Brentano diffractometer (STOE STADI P) provided with a DECTRIS MythenlK detector using mono-chromatized (Ge111-monochromator) copper emissions Cu K(α1) (wave length λ=1.54187 Å).

[7] = physchem
Description: Determination of the maximum solubility of crystalline form III in water at RT was carried out with UV-Vis spectroscopy in an Agilent Cary 300 UV-Vis spectrometer. This process is based on a linear correlation between the concentration of a dissolved solid and the calculated absorption at a particular wavelength (Beer-Lambert law).
A stock solution of 0.502 g of form III in 2 mL H2O (demineralized) was produced. For the generating a 3-point calibration curve three solutions were produced after appropriate dilution thereof with concentrations of 0.5041 mmol/l, 0.2521 mmol/l and 0.1260 mmol/l, and their respective absorption at 347 nm was determined. […] Further, a supersaturated solution of 0.531 g of form III in 2 mL H2O (demineralized) was produced to determine the maximum concentration. 100 μL of the solution were 2000-fold diluted and the absorption at 347 nm was determined as well.

[8] = FIG. 8, increasing proportion of H2O
[9] = water, thermodynamic from solid

- Bulk densities (mean ± standard deviation) ([3]; sodium salt dihydrate): 72.3 ± 4.1 kg/m^3
SMILES: Nc1cccc2c(=O)[nH][nH]c(=O)c12 [Dihydrate, 5-amino-2,3-dihydrophthalazine-1,4-dione sodium salt dihydrate]
- TNF-alpha secretion, mean m ([1]; sodium salt dihydrate): 26.87 pg/mL
- IL-6 secretion, mean m ([2]; sodium salt dihydrate): 40.93 pg/mL
- solid phase transition temperature [4]: 85 °C

- temperature at which decomposition starts [5]: 391.7 °C
- thermodynamic stability versus form I ([6]; 50:50 wt % mixture of form I and form III in 2-propanol, stirred at RT for 3 days): thermodynamically more stable polymorph
- thermodynamic stability versus form II ([6]; 50:50 wt % mixture of form II and form III in 2-propanol, stirred at RT for 24 h): thermodynamically more stable polymorph
- Bulk densities (mean ± standard deviation) ([3]; sodium salt): 203.5 ± 6.7 kg/m^3
- solubility in water compared with forms I and II ([7]; RT, forms I and II cf. WO2011/107295A1): less soluble than forms I and II
- solubility [7, 9]: 145 mg/mL
- solubility thermodynamic [7, 9]: 730 mM
SMILES: Nc1cccc2c(=O)[nH][nH]c(=O)c12 [Form III, 5-amino-2,3-dihydrophthalazine-1,4-dione sodium salt]
- TNF-alpha secretion, mean m ([1]; sodium salt): 22.15 pg/mL
- IL-6 secretion, mean m ([2]; sodium salt): 34.86 pg/mL

- Bulk densities (mean ± standard deviation) ([3]; sodium salt): 108.6 ± 3.0 kg/m^3
SMILES: Nc1cccc2c(=O)[nH][nH]c(=O)c12 [Form II, 5-amino-2,3-dihydrophthalazine-1,4-dione sodium salt]
- TNF-alpha secretion, mean m ([1]; sodium salt): 22.16 pg/mL
- IL-6 secretion, mean m ([2]; sodium salt): 36.11 pg/mL

- Bulk densities (mean ± standard deviation) ([3]; sodium salt): 201.9 ± 3.9 kg/m^3
SMILES: Nc1cccc2c(=O)[nH][nH]c(=O)c12 [Form I, 5-amino-2,3-dihydrophthalazine-1,4-dione sodium salt]
- TNF-alpha secretion, mean m ([1]; sodium salt): 25.28 pg/mL
- IL-6 secretion, mean m ([2]; sodium salt): 41.15 pg/mL

- solubility in a DMSO-H2O mixture with increasing proportion of H2O [8]: increases continuously
SMILES: Nc1cccc2c(=O)[nH][nH]c(=O)c12 [5-amino-2,3-dihydrophthalazine-1,4-dione sodium salt]

Source: patent publication US10258620B2, “Crystalline form of 5-amino-2,3-dihydrophthalazine-1,4-dione sodium salt, pharmaceutical preparations containing the same and method for the production of said form” (METRIOPHARM AG, priority 2014, dated 2019)
